The NIST ThermoML archive (doi:10.1016/j.fluid.2013.07.060)
“And” between values parts separate entries of the source, which are not always exact repeats. Equal values may be shown once.

What was measured:
[1] = xn = mol fraction of the nth substance listed; conditions: 101 kPa, Liquid; for viscosity: Capillary tube (Ostwald / Ubbelohde) method; for mass density: Vibrating tube method
[2] = 101.33 kPa, Liquid, Capillary tube (Ostwald / Ubbelohde) method

CCCCCC [hexane] + FC(F)(F)C(F)(F)C(F)(F)C(F)(F)C(F)(F)C(F)(F)F
[1], x2 = 0
Conditions	mass density [kg/m3]	viscosity [mPa·s]
298 K	655	0.294
303 K	–	0.28
308 K	–	0.267

CCCCCC [hexane]
[2]
Conditions	viscosity [mPa·s]
298.2 K	0.2937
303.16 K	0.2798
308.13 K	0.2669

FC(F)(F)C(F)(F)C(F)(F)C(F)(F)C(F)(F)C(F)(F)F [perfluorohexane] + CCCCCC
[1]
Conditions	mass density, x1 = 0.25 [kg/m3]	mass density, x1 = 0.5 [kg/m3]	mass density, x1 = 0.75 [kg/m3]	mass density, x1 = 1 [kg/m3]	viscosity, x1 = 0.243 [mPa·s]	viscosity, x1 = 0.5	viscosity, x1 = 0.705 [mPa·s]	viscosity, x1 = 0.727 [mPa·s]	viscosity, x1 = 0.902 [mPa·s]	viscosity, x1 = 1 [mPa·s]
298 K	956	1207	1457	1672	0.341	0.408 mPa·s and 0.407 mPa·s	0.458	0.468	0.556	0.635
303 K	–	–	–	–	0.319	0.375 mPa·s	0.428	0.438	0.52	0.589
308 K	–	–	–	–	0.299	0.35 mPa·s and 0.352 mPa·s	0.401	0.41	0.483	0.548
